Data as given in patent publication US20080227655A1, “Assessment of effect of an agent on a human biological condition using rodent gene expression panels” (priority 2006, published 2008).
“And” between values parts separate entries of the source, which are not always exact repeats. Equal values may be shown once.

Test system: custom murine 40-gene Precision Profile for Rheumatoid Arthritis, whole blood
Test: Collagen Induced Arthritis (CIA) model, whole blood gene expression by QPCR, vehicle or dexamethasone treatment
Assay type: in vivo, male DBA/1 mice
Protocol: Whole blood gene expression changes were evaluated in vehicle control and drug-treated murine subjects across two murine models of arthritis according to the following arthritis models:
KRN Transgenic Mouse (K/B×N): K/B×N serum from transgenic mouse used to induce arthritis in female BALB/c mice (n=54). Collagen Induced Arthritis (CIA): Bovine type II collagen used to induce arthritis in male DBA/1 mice (n=54).
In addition, naïve, untreated animal groups at baseline and terminal day were included to control for potential age-related changes in gene expression over the extended study periods. Animal groups, time-points, and treatment schedules are summarized in Tables 20A and 20B, respectively.
Whole blood samples from animals were collected by retro-orbital bleed at selected time-points in accordance with the arthritis study schemas described in […], and transferred into sample collection tubes containing a 1.5× lysis solution and RPMI. Samples were processed into total RNA and cDNA. […] It was anticipated from these murine models would provide a better understanding of the relevant molecular response of arthritis induction and their potential correlation to the human disease condition.
Normal murine subject reference values (represented as normalized Ct or ΔCt values) were established for male DBA/1 mice (n=6 for the CIA study arm) and female BALB/c mice (n=6 for the KRN study arm). In both arms of the study, gene expression response of normal (naïve, non-immunized and untreated) murine subjects were evaluated in groups of 6 each at day 0 and day 60 for the CIA study arm, and at day 0 and day 21 for the KRN study arm (see Tables 20A and 20B).
Gene expression responses for this arthritis-induced murine model were evaluated for untreated mice at day 24 and vehicle-treated mice at days 33, 42, and 60 to characterize disease progression.

[1] = CIA Day 42 Treated, group Average
[2] = CIA Day 42 Treated, group Average, whole blood
[3] = CIA Day 42 Treated, individual mice
[4] = CIA Day 42 Treated, individual mice, whole blood
[5] = CIA Day 60 Treated, group Average
[6] = CIA Day 60 Treated, group Average, whole blood
[7] = CIA Day 60 Treated, individual mice
[8] = CIA Day 60 Treated, individual mice, whole blood

C[C@@H]1C[C@H]2[C@@H]3CCC4=CC(=O)C=C[C@]4(C)[C@@]3(F)[C@@H](O)C[C@]2(C)[C@@]1(O)C(=O)CO [Dexamethasone]
CD19_M Normalized CT Value (Delta CT), Average [1]: 17.41
CD32_M Normalized CT Value (Delta CT), Average [1]: 19.18
CD86_M Normalized CT Value (Delta CT), Average [1]: 22.86
CSPG2_M Normalized CT Value (Delta CT), Average [1]: 18.40
F3_M Normalized CT Value (Delta CT), Average [1]: 24.19
HMOX1—M Normalized CT Value (Delta CT), Average [1]: 17.42
HSPA1A—M Normalized CT Value (Delta CT), Average [1]: 22.06
ICAM1—M Normalized CT Value (Delta CT), Average [1]: 19.40
IFI16_M Normalized CT Value (Delta CT), Average [1]: 18.56
IL1A_M Normalized CT Value (Delta CT), Average [1]: 24.26
IL1B_M Normalized CT Value (Delta CT), Average [1]: 14.10
IL10_M Normalized CT Value (Delta CT), Average [1]: 25.70
Normalized CT (Delta CT) IL1RAP_M [2]: 18.00
Normalized CT (Delta CT) IL1RN—M [2]: 17.54
Normalized CT (Delta CT) IL6_M [2]: 24.59
Normalized CT (Delta CT) JUN_M [2]: 20.13
Normalized CT (Delta CT) MEF2C—M [2]: 19.65
Normalized CT (Delta CT) NFKB1—M [2]: 17.40
Normalized CT (Delta CT) PADI4—M [2]: 17.97
Normalized CT (Delta CT) PLA2G7—M [2]: 14.89
ABCA1_M Normalized CT Value (Delta CT) [3]: 19.25 and 19.03 and 20.65 and 19.18 and 18.65 and 19.31
APAF1_M Normalized CT Value (Delta CT) [3]: 20.34 and 19.23 and 20.02 and 18.89 and 19.10 and 20.01
ARG2_M Normalized CT Value (Delta CT) [3]: 18.59 and 17.70 and 18.13 and 17.87 and 17.07 and 18.04
CASP1_M Normalized CT Value (Delta CT) [3]: 19.07 and 17.95 and 20.08 and 18.16 and 18.00 and 18.03
CASP3_M Normalized CT Value (Delta CT) [3]: 18.26 and 18.13 and 18.40 and 18.45 and 17.48 and 17.70
CCR3_M Normalized CT Value (Delta CT) [3]: 19.92 and 18.94 and 19.77 and 19.05 and 19.94
CD8A_M Normalized CT Value (Delta CT) [3]: 19.05 and 19.19 and 19.47 (2×) and 19.54 and 21.24
CD14_M Normalized CT Value (Delta CT) [3]: 18.22 and 17.59 and 18.17 and 17.46 and 16.46 and 17.49
CD19_M Normalized CT Value (Delta CT) [3]: 17.83 and 18.59 and 17.22
CD32_M Normalized CT Value (Delta CT) [3]: 19.54 and 18.75 and 20.05 and 19.32 and 18.31 and 19.12
CD86_M Normalized CT Value (Delta CT) [3]: 22.76 and 21.99 and 24.40 and 22.29 and 22.95 and 22.75
CSPG2_M Normalized CT Value (Delta CT) [3]: 17.53 and 18.70 and 18.64 and 18.36 and 19.59 and 17.59
F3_M Normalized CT Value (Delta CT) [3]: 21.92 and 24.08 and 25.50 and 24.56 and 23.94 and 25.11
HMOX1—M Normalized CT Value (Delta CT) [3]: 15.87 and 17.25 and 18.49 and 17.66 and 17.84 and 17.40
HSPA1A—M Normalized CT Value (Delta CT) [3]: 21.34 and 22.12 and 22.63 and 20.82 and 23.83 and 21.63
ICAM1—M Normalized CT Value (Delta CT) [3]: 18.58 and 19.08 and 19.89 and 19.37 and 20.27 and 19.24
IFI16_M Normalized CT Value (Delta CT) [3]: 17.87 and 17.97 and 18.60 and 18.06 and 20.80 and 18.04
IL1A_M Normalized CT Value (Delta CT) [3]: 24.26
IL1B_M Normalized CT Value (Delta CT) [3]: 13.49 and 14.12 and 14.22 and 14.25 and 14.38 and 14.15
IL10_M Normalized CT Value (Delta CT) [3]: 25.44 (2×) and 25.71 and 25.64 and 25.84 and 26.13
Normalized CT (Delta CT) IL1RAP_M [4]: 17.46 and 17.94 and 18.31 and 18.38 and 17.99 and 17.91
Normalized CT (Delta CT) IL1RN—M [4]: 16.89 and 17.57 and 17.94 and 17.76 and 17.56 and 17.53
Normalized CT (Delta CT) IL6_M [4]: 24.11 and 25.01 and 23.38 and 25.34 and 25.09
Normalized CT (Delta CT) JUN_M [4]: 19.54 and 19.51 and 20.43 and 19.81 and 21.67 and 19.83
Normalized CT (Delta CT) MEF2C—M [4]: 19.72 and 19.12 and 19.89 and 19.47 and 20.04 and 19.64
Normalized CT (Delta CT) NFKB1—M [4]: 17.25 and 16.83 and 17.27 and 16.97 and 18.81 and 17.26
Normalized CT (Delta CT) PADI4—M [4]: 17.57 and 18.02 and 17.98 (2×) and 18.35 and 17.91
Normalized CT (Delta CT) PLA2G7—M [4]: 14.60 and 14.83 and 15.02 and 14.96 and 15.09 and 14.82
ABCA1_M Normalized CT Value (Delta CT), Average [5]: 18.01
APAF1_M Normalized CT Value (Delta CT), Average [5]: 18.94
ARG2_M Normalized CT Value (Delta CT), Average [5]: 17.62
CASP1_M Normalized CT Value (Delta CT), Average [5]: 18.09
CASP3_M Normalized CT Value (Delta CT), Average [5]: 17.44
CCR3_M Normalized CT Value (Delta CT), Average [5]: 20.02
CD14_M Normalized CT Value (Delta CT), Average [5]: 17.08
CD32_M Normalized CT Value (Delta CT), Average [5]: 18.46
CD86_M Normalized CT Value (Delta CT), Average [5]: 22.22
Normalized CT (Delta CT) IL1RAP_M [6]: 18.09
Normalized CT (Delta CT) IL1RN—M [6]: 17.39
Normalized CT (Delta CT) IL6_M [6]: 24.58
Normalized CT (Delta CT) JUN_M [6]: 19.44
Normalized CT (Delta CT) MEF2C—M [6]: 19.42
Normalized CT (Delta CT) NFKB1—M [6]: 16.65
Normalized CT (Delta CT) PADI4—M [6]: 18.36
Normalized CT (Delta CT) PLA2G7—M [6]: 14.66
ABCA1_M Normalized CT Value (Delta CT) [7]: 18.15 and 17.43 and 18.02 and 18.03 and 18.50 and 17.95
APAF1_M Normalized CT Value (Delta CT) [7]: 18.90 and 18.40 and 19.28 and 18.97 and 19.36 and 18.75
ARG2_M Normalized CT Value (Delta CT) [7]: 17.69 and 17.21 and 17.86 and 17.73 and 18.48 and 16.78
CASP1_M Normalized CT Value (Delta CT) [7]: 17.78 and 17.53 and 18.19 and 18.75 and 18.66 and 17.61
CASP3_M Normalized CT Value (Delta CT) [7]: 17.72 and 17.06 and 17.22 and 17.97 and 17.46 and 17.18
CCR3_M Normalized CT Value (Delta CT) [7]: 20.33 and 18.57 and 20.17 and 20.39 and 21.29 and 19.38
CD14_M Normalized CT Value (Delta CT) [7]: 17.31 and 16.84 (2×) and 17.24 and 17.32 and 16.92
CD32_M Normalized CT Value (Delta CT) [7]: 18.41 and 17.86 and 18.35 and 18.90 and 18.54 and 18.72
CD86_M Normalized CT Value (Delta CT) [7]: 22.26 and 21.38 and 22.48 and 22.41 and 22.40 and 22.37
Normalized CT (Delta CT) IL1RAP_M [8]: 18.11 and 18.37 and 18.06 and 18.23 and 18.26 and 17.51
Normalized CT (Delta CT) IL1RN—M [8]: 17.45 and 17.37 and 17.66 and 17.72 and 17.62 and 16.51
Normalized CT (Delta CT) IL6_M [8]: 25.14 and 24.12 and 24.79 and 25.54 and 25.20 and 22.67
Normalized CT (Delta CT) JUN_M [8]: 19.63 and 19.39 and 19.44 (2×) and 19.07 and 19.67
Normalized CT (Delta CT) MEF2C—M [8]: 19.42 and 19.06 and 19.35 and 19.73 and 19.55 and 19.41
Normalized CT (Delta CT) NFKB1—M [8]: 16.72 and 16.41 and 16.30 and 16.95 and 16.80 and 16.73
Normalized CT (Delta CT) PADI4—M [8]: 18.90 and 18.59 and 18.29 and 18.10 and 18.41 and 17.84
Normalized CT (Delta CT) PLA2G7—M [8]: 14.78 and 14.34 and 14.76 and 14.77 and 14.96 and 14.35
Normalized CT (Delta CT), column 9, gene sub-head of this block not shown [8]: 24.31
